The results in this text go back to patent publication US11339161B2, “Triazolo pyridines as modulators of gamma-secretase” (Boehringer Ingelheim International GmbH, priority 2017, dated 2022).

Where two headings read alike, the source gives them in different places.

Test [1] relates to Aβ42 production. The test can be described thus: Inhibition of Aβ42 production in H4 neuroglioma cells stably expressing human APP695 (MSD electrochemiluminescence). The class given is cell-based. The settings on record: for modulation of γ-secretase (in words): tables 4a/4b. How it is done: Cells were plated out to near confluency. The compounds to be tested were received as 10 mM stocks in 100% DMSO. A dilution series was initially generated in 100% DMSO and then diluted 200-fold in cell culture media such that the tested concentration range was 30 μM to 0.1 nM and the final DMSO concentration was 0.5%. The diluted compounds were incubated with the cells for 22 hours in an incubator at 37° C. and 5% CO2. Aβ42 levels were measured post-incubation from the supernatant of the cells using an Aβ42 specific electrochemiluminescence assay provided by Meso Scale Discovery (Catalog #L21CA-1). The measurement of Aβ42 levels were performed according to the manufacturer's protocol.

Test [2] addresses T1, MAP4K2 (GCK) (Homo sapiens, UniProt Q12851).
T1 sequence (Q12851 1-820): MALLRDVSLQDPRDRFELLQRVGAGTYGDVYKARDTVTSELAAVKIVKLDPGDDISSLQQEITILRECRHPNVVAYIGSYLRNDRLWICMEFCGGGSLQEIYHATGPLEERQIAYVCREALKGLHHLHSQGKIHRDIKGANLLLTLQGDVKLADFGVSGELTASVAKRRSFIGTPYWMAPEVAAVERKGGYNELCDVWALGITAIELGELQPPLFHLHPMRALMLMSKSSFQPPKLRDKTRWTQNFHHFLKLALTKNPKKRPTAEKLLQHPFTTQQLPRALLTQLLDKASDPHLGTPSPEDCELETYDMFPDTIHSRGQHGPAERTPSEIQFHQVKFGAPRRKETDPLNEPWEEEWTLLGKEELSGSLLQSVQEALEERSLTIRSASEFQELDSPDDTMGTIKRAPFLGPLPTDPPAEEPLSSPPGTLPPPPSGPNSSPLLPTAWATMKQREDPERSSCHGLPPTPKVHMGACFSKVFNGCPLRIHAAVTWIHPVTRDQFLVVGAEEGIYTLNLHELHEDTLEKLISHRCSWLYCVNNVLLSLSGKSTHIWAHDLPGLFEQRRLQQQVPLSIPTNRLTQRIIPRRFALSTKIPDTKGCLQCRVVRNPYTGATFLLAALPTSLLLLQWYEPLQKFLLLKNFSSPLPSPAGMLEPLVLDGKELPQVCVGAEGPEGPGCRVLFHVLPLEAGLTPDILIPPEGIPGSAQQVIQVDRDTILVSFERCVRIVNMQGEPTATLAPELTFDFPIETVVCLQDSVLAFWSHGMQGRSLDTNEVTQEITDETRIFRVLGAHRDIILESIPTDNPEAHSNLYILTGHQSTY
As to the kind of experiment: Z'-LYTE SelectScreen biochemical kinase assay MAP4K2 (GCK). An excerpt:
Thermo Fisher Scientific SelectScreen™ Biochemical Kinase Profiling Service Z′-LYTE™ Screening Protocol and Assay Conditions Assay Theory
The […] biochemical assay employs a fluorescence-based, coupled-enzyme format and is based on the differential sensitivity of phosphorylated and non-phosphorylated peptides to proteolytic cleavage. The peptide substrate is labeled with two fluorophores—one at each end—that make up a FRET pair. In the primary reaction, the kinase transfers the gamma-phosphate of ATP to a single tyrosine, serine or threonine residue in a synthetic FRET-peptide. In the secondary reaction, a site-specific protease recognizes and cleaves non-phosphorylated FRET-peptides. Phosphorylation of FRET-peptides suppresses cleavage by the Development Reagent. Cleavage disrupts FRET between the donor (i.e., coumarin) and acceptor (i.e., fluorescein) fluorophores on the FRET-peptide, whereas uncleaved, phosphorylated FRET-peptides maintain FRET. A ratiometric method, which calculates the ratio (Emission Ratio=Coumarin emission (445 nm)/Fluorescein emission (520 nm)) of donor emission to acceptor emission after excitation of the donor fluorophore at 400 nm, is used to quantitate reaction progress, as shown in the equation below. A significant benefit of this ratiometric method for quantitating reaction progress is the elimination of well-to-well variations in FRET-peptide concentration and signal intensities. As a result, the assay yields very high Z′-factor values (>0.7) at a low percent phosphorylation. Both cleaved and uncleaved FRET-peptides contribute to the fluorescence signals and therefore to the Emission Ratio. The extent of phosphorylation of the FRET-peptide can be calculated from the Emission Ratio. The Emission Ratio will remain low if the FRET-peptide is phosphorylated (i.e., no kinase inhibition) and will be high if the FRET-peptide is non-phosphorylated (i.e., kinase inhibition).
The Test Compounds are screened in 1% DMSO (final) in the well. For 10 point titrations, 3-fold serial dilutions are conducted from the starting concentration of the customer's choosing.
All Peptide/Kinase Mixtures are diluted to a 2× working concentration in the appropriate Kinase Buffer (see section Kinase Specific Assay Conditions for a complete description).
All ATP Solutions are diluted to a 4× working concentration in Kinase Buffer (50 mM HEPES pH 7.5, 0.01% BRIJ-35, 10 mM MgCl2, 1 mM EGTA). ATP Km apparent is previously determined using a Z″-LYTE assay.
The Development Reagent is diluted in Development Buffer (see section Kinase-Specific Assay Conditions—Direct and Cascade for a complete description).
Bar-coded Corning, low volume NBS, black 384-well plate (Corning Cat. #4514) • 1. 100 nL—100× Test Compound in 100% DMSO • 2. 2.4 μL—Kinase buffer • 3. 5 μL—2× Peptide/Kinase Mixture • 4. 2.5 μL—4×ATP Solution • 5. 30—second plate shake • 6. 60—minute Kinase Reaction incubation at room temperature • 7. 5 μL—Development Reagent Solution • 8. 30—second plate shake • 9. 60—minute Development Reaction incubation at room temperature • 10. Read on fluorescence plate reader and analyze the data Z′-LYTE Assay Controls
SelectScreen Kinase Profiling Service uses XLfit from IDBS. The dose response curve is curve fit to model number 205 (sigmoidal dose-response model).
The 2×MAP4K2 (GCK)/Ser/Thr 07 mixture is prepared in 50 mM HEPES pH 7.5, 0.01% BRIJ-35, 10 mM MgCl2, 1 mM EGTA. The final 10 μL Kinase Reaction consists of 0.11-3 ng MAP4K2 (GCK) and 2 μM Ser/Thr 07 in 50 mM HEPES pH 7.5, 0.01% BRIJ-35, 10 mM MgCl2, 1 mM EGTA. After the 1 hour Kinase Reaction incubation, 5 μL of a 1:45000 dilution of Development Reagent A is added.

The mark [3] stands for this setting: H4 neuroglioma cells expressing human APP695, 22 hours incubation, Table 4a.
Setting [4] is: 10 μmolar compound concentration, ATP at Km app, read-out: MAP4K2 (GCK) inhibition.
Where [5] appears, read: read-out: % Inhibition mean MAP4K2 (GCK).
Setting [6] is: Homo sapiens, H4 neuroglioma cells, same assay as table 4a, prior art compounds, Table 4b.

By IC50 is commonly meant the concentration at which inhibition is half-maximal. A high value points to lower potency. One may read the inhibition as the drop in the measured response relative to a control, in per cent.

`CCn1ncc2c1CCC(Nc1nc3c(-c4ccc(F)cc4C)cccn3n1)C2` (centres unmarked) [Example 42, (1-Ethyl-4,5,6,7-tetrahydro-1H-indazol-5-yl)-[8-(4-fluoro-2-methyl-phenyl)-[1,2,4]triazolo[1,5-a]pyridine-2-yl]-amine] had an IC50 in test [1] (setting [3]) of 70 nM. In addition, the inhibition at 10 µM in test [2] (setting [4]) is less than 40%; in test [2] (setting [5]), 21%.

Take `CCn1ncc2c1CCC(Nc1nc3c(-c4cncc(Cl)c4)cccn3n1)C2` (centres unmarked) [Example 73, [8-(5-Chloro-pyridin-3-yl)-[1,2,4]triazolo[1,5-a]pyridine-2-yl]-(1-ethyl-4,5,6,7-tetrahydro-1H-indazol-5-yl)-amine]: in test [1] (setting [3]), 40 nM corresponded to half-maximal inhibition (IC50). Moreover, the inhibition at 10 µM in test [2] (setting [4]) was 40 to 80%; in test [2] (setting [5]), 49%.

`CCn1ncc2c1C(C)CC(Nc1nc3c(-c4cc(F)c(F)c(F)c4)cccn3n1)C2` (centres unmarked) [Example 49, (1-Ethyl-7-methyl-4,5,6,7-tetrahydro-1H-indazol-5-yl)-[8-(3,4,5-trifluoro-phenyl)-[1,2,4]triazolo[1,5-a]pyridine-2-yl]-amine] showed an IC50 in test [1] (setting [3]) of 950 nM. In addition, the values for the inhibition at 10 µM in test [2] (setting [4]) and in test [2] (setting [5]) were less than 40% and 17%, respectively.

Compound `CC1(C)C(=O)Nc2ccc(Nc3nc4c(-c5cccc(F)c5)cccn4n3)cc21` [Cpd. 263 in WO09155551, reference compound] returned an IC50 in test [1] (setting [6]) of 6000 nM. Further, the “modulation of γ-secretase (in words)” value in test [1] is recorded as “rather poor modulation”. Besides, the inhibition at 10 µM in test [2] (setting [4]) was more than 80%; in test [2] (read-out: % Inhibition mean) it was 98%.

Compound `CCn1ncc2c1CCC(Nc1nc3c(-c4cnccc4OC)cccn3n1)C2` (centres unmarked) [Example 68, (1-Ethyl-4,5,6,7-tetrahydro-1H-indazol-5-yl)-[8-(4-methoxy-pyridin-3-yl)-[1,2,4]triazolo[1,5-a]pyridine-2-yl]-amine] yielded an IC50 in test [1] (setting [3]) of 120 nM. For the same compound, the inhibition at 10 µM in test [2] (setting [4]) was less than 40%; in test [2] (setting [5]), 28%.

`CCCn1ncc2c1CCC(Nc1nc3c(-c4ccc(F)cc4C)cccn3n1)C2` (centres unmarked) [Example 43, [8-(4-fluoro-2-methyl-phenyl)-[1,2,4]triazolo[1,5-a]pyridine-2-yl]-(1-propyl-4,5,6,7-tetrahydro-1H-indazol-5-yl)-amine] yielded a concentration for half-maximal inhibition (IC50) in test [1] (setting [3]) of 60 nM. Further, the inhibition at 10 µM in test [2] (setting [4]) is less than 40%; in test [2] (setting [5]) it was 9%.

As to `Cc1cc(F)ccc1-c1cccn2nc(Nc3ccc4c(cnn4C)c3)nc12` [Example 9, [8-(4-fluoro-2-methyl-phenyl)-[1,2,4]triazolo[1,5-a]pyridine-2-yl]-(1-methyl-1H-indazol-5-yl)-amine], half-maximal inhibition in test [1] (setting [3]) (IC50) required 1260 nM. The inhibition at 10 µM in test [2] (setting [4]) is 40 to 80%; in test [2] (setting [5]), 43%.

Turning to `CC1(C)NC(=O)c2ccc(Nc3nc4c(-c5cccc(F)c5)cccn4n3)cc21` [Cpd. 302 in WO09155551, reference compound], the IC50 in test [1] (setting [6]) is more than 10000 nM. The “modulation of γ-secretase (in words)” value in test [1] is “do not show any modulation”. The figures for the inhibition at 10 µM in test [2] (setting [4]) and in test [2] (read-out: % Inhibition mean) were more than 80% and 99%, respectively.

In the case of `CCCCn1ncc2c1CCC(Nc1nc3c(-c4ccc(F)cc4C)cccn3n1)C2` (centres unmarked) [Example 46, [8-(4-fluoro-2-methyl-phenyl)-[1,2,4]triazolo[1,5-a]pyridine-2-yl]-(1-butyl-4,5,6,7-tetrahydro-1H-indazol-5-yl)-amine], in test [1] (setting [3]), half-maximal inhibition (IC50) required 2770 nM. Moreover, the inhibition at 10 µM in test [2] (setting [4]) was less than 40%; in test [2] (setting [5]), 19%.

Take `Cc1cc(F)ccc1-c1cccn2nc(NC3CCc4c(cnn4C(C)C)C3)nc12` (centres unmarked) [Example 44, [8-(4-fluoro-2-methyl-phenyl)-[1,2,4]triazolo[1,5-a]pyridine-2-yl]-(1-isopropyl-4,5,6,7-tetrahydro-1H-indazol-5-yl)-amine]: in test [1] (setting [3]), the IC50 came to 430 nM. For the same compound, the inhibition at 10 µM in test [2] (setting [4]) was less than 40%; in test [2] (setting [5]) it was 26%.

For the compound `CCn1ncc2c1CC[C@H](Nc1nc3c(-c4ccc(F)c(Cl)c4)cccn3n1)C2` [Example S-61, (S)-[8-(3-Chloro-4-fluoro-phenyl)-[1,2,4]triazolo[1,5-a]pyridine-2-yl]-(1-ethyl-4,5,6,7-tetrahydro-1H-indazol-5-yl)-amine], the half-inhibitory concentration (IC50) in test [1] (setting [3]) is 194 nM. In addition, the inhibition at 10 µM in test [2] (setting [4]) was less than 40%; in test [2] (setting [5]), 12%.

Regarding `CCn1nnc2c1CCC(Nc1nc3c(-c4ccc(F)cc4C)cccn3n1)C2` (centres unmarked) [Example 51, (1-Ethyl-4,5,6,7-tetrahydro-1H-benzotriazol-5-yl)-[8-(4-fluoro-2-methyl-phenyl)-[1,2,4]triazolo[1,5-a]pyridine-2-yl]-amine], in test [1] (setting [3]), half-maximal inhibition (IC50) was put at 2200 nM. For the same compound, the inhibition at 10 µM was less than 40% in test [2] (setting [4]) and 22% in test [2] (setting [5]).

Regarding `CCn1ncc2c1CC[C@@H](Nc1nc3c(-c4ccc(F)cc4C)cccn3n1)C2` [Example R-42, (R)-(1-Ethyl-4,5,6,7-tetrahydro-1H-indazol-5-yl)-[8-(4-fluoro-2-methyl-phenyl)-[1,2,4]triazolo[1,5-a]pyridine-2-yl]-amine], the IC50 in test [1] (setting [3]) came out at 40 nM. The figures for the inhibition at 10 µM in test [2] (setting [4]) and in test [2] (setting [5]) were less than 40% and 25%, respectively.

In the case of `CCn1ncc2c1CCC(Nc1nc3c(-c4cccnc4OC)cccn3n1)C2` (centres unmarked) [Example 69, (1-Ethyl-4,5,6,7-tetrahydro-1H-indazol-5-yl)-[8-(2-methoxy-pyridin-3-yl)-[1,2,4]triazolo[1,5-a]pyridine-2-yl]-amine], in test [1] (setting [3]), the IC50 worked out at 500 nM. The inhibition at 10 µM in test [2] (setting [4]) is less than 40%; in test [2] (setting [5]) it was 9%.
